{
  "source": "PubChem BioAssay (NCI)",
  "note": "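These data come from cells grown in 96-well plates and exposed to compound for 48 hours at five concentrations. TGI: concentration producing complete growth inhibition.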",
  "data": [
    {"tested_on": "OVCAR-4 ovarian", "test": "DTP human tumour cell line panel, 48 h", "units": {"TGI": "µM"}, "values": [
      {"compound": "N#CCc1cccc(CC#N)c1Br", "TGI": "> 100"},
      {"compound": "COC(=O)c1c(O)ccc2c1c1c(n2Cc2cc(OC)cc(OC)c2)C(=O)c2ccccc2C1=O", "TGI": 50.7},
      {"compound": "COc1cc([C@@H]2c3cc4c(cc3[C@@H](NCc3cccc(C#N)c3)C3COC(=O)[C@@H]32)OCO4)cc(OC)c1O", "note": "(stereo partly specified)", "TGI": "> 100"}
    ]},
    {"tested_on": "A498 renal", "test": "DTP human tumour cell line panel, 48 h", "units": {"TGI": "µM"}, "values": [
      {"compound": "CCCCCCCCCCCCCCCc1nc(=S)[nH][nH]1", "TGI": "> 100"},
      {"compound": "O=C1OC(=O)C([Se]c2ccccc2)=C1[Se]c1ccccc1", "TGI": "> 100"},
      {"compound": "CCOP(=O)(O)C(Nc1ccc(N=Nc2ccccc2)cc1)c1cccc(C(Nc2ccc(N=Nc3ccccc3)cc2)P(=O)(O)OCC)c1", "note": "(stereo unspecified)", "TGI": 88.6},
      {"compound": "COC(=O)c1c(O)ccc2c1c1c(n2Cc2cc(OC)cc(OC)c2)C(=O)c2ccccc2C1=O", "TGI": "> 100"},
      {"compound": "COc1cc([C@@H]2c3cc4c(cc3[C@@H](NCc3cccc(C#N)c3)C3COC(=O)[C@@H]32)OCO4)cc(OC)c1O", "note": "(stereo partly specified)", "TGI": 4.27}
    ]},
    {"tested_on": "A549 NSCLC", "test": "DTP human tumour cell line panel, 48 h", "units": {"TGI": "µM"}, "values": [
      {"compound": "O=C1OC(=O)C([Se]c2ccccc2)=C1[Se]c1ccccc1", "TGI": "> 100"},
      {"compound": "CCOP(=O)(O)C(Nc1ccc(N=Nc2ccccc2)cc1)c1cccc(C(Nc2ccc(N=Nc3ccccc3)cc2)P(=O)(O)OCC)c1", "note": "(stereo unspecified)", "TGI": "> 100"},
      {"compound": "CCCCCCCCC(O)c1ccc(/C=C\\C(O)CCCC(=O)O)s1", "note": "(stereo unspecified)", "TGI": "> 100"},
      {"compound": "N#CCc1cccc(CC#N)c1Br", "TGI": "> 100"},
      {"compound": "COC(=O)c1c(O)ccc2c1c1c(n2Cc2cc(OC)cc(OC)c2)C(=O)c2ccccc2C1=O", "TGI": 31.3},
      {"compound": "COc1cc([C@@H]2c3cc4c(cc3[C@@H](NCc3cccc(C#N)c3)C3COC(=O)[C@@H]32)OCO4)cc(OC)c1O", "note": "(stereo partly specified)", "TGI": 1.91}
    ]},
    {"tested_on": "T-47D breast", "test": "DTP human tumour cell line panel, 48 h", "units": {"TGI": "µM"}, "values": [
      {"compound": "CCOP(=O)(O)C(Nc1ccc(N=Nc2ccccc2)cc1)c1cccc(C(Nc2ccc(N=Nc3ccccc3)cc2)P(=O)(O)OCC)c1", "note": "(stereo unspecified)", "TGI": "> 100"},
      {"compound": "COC(=O)c1c(O)ccc2c1c1c(n2Cc2cc(OC)cc(OC)c2)C(=O)c2ccccc2C1=O", "TGI": 50.5}
    ]},
    {"tested_on": "KM20L2 colon", "test": "DTP human tumour cell line panel, 48 h", "units": {"TGI": "µM"}, "values": [
      {"compound": "O=C1OC(=O)C([Se]c2ccccc2)=C1[Se]c1ccccc1", "TGI": "> 100"},
      {"compound": "CCCCCCCCC(O)c1ccc(/C=C\\C(O)CCCC(=O)O)s1", "note": "(stereo unspecified)", "TGI": "> 100"},
      {"compound": "N#CCc1cccc(CC#N)c1Br", "TGI": "> 100"},
      {"compound": "COc1cc([C@@H]2c3cc4c(cc3[C@@H](NCc3cccc(C#N)c3)C3COC(=O)[C@@H]32)OCO4)cc(OC)c1O", "note": "(stereo partly specified)", "TGI": 4.63}
    ]},
    {"tested_on": "RPMI-8226 leukemia", "test": "DTP human tumour cell line panel, 48 h", "units": {"TGI": "µM"}, "values": [
      {"compound": "CCCCCCCCCCCCCCCc1nc(=S)[nH][nH]1", "TGI": "> 100"},
      {"compound": "O=C1OC(=O)C([Se]c2ccccc2)=C1[Se]c1ccccc1", "TGI": "> 100"},
      {"compound": "CCOP(=O)(O)C(Nc1ccc(N=Nc2ccccc2)cc1)c1cccc(C(Nc2ccc(N=Nc3ccccc3)cc2)P(=O)(O)OCC)c1", "note": "(stereo unspecified)", "TGI": 86.5},
      {"compound": "CCCCCCCCC(O)c1ccc(/C=C\\C(O)CCCC(=O)O)s1", "note": "(stereo unspecified)", "TGI": "> 100"},
      {"compound": "N#CCc1cccc(CC#N)c1Br", "TGI": "> 100"},
      {"compound": "COC(=O)c1c(O)ccc2c1c1c(n2Cc2cc(OC)cc(OC)c2)C(=O)c2ccccc2C1=O", "TGI": 9.98},
      {"compound": "COc1cc([C@@H]2c3cc4c(cc3[C@@H](NCc3cccc(C#N)c3)C3COC(=O)[C@@H]32)OCO4)cc(OC)c1O", "note": "(stereo partly specified)", "TGI": 7.33}
    ]},
    {"tested_on": "SF-539 CNS", "test": "DTP human tumour cell line panel, 48 h", "units": {"TGI": "µM"}, "values": [
      {"compound": "CCCCCCCCCCCCCCCc1nc(=S)[nH][nH]1", "TGI": "> 100"},
      {"compound": "O=C1OC(=O)C([Se]c2ccccc2)=C1[Se]c1ccccc1", "TGI": "> 100"},
      {"compound": "CCOP(=O)(O)C(Nc1ccc(N=Nc2ccccc2)cc1)c1cccc(C(Nc2ccc(N=Nc3ccccc3)cc2)P(=O)(O)OCC)c1", "note": "(stereo unspecified)", "TGI": "> 100"},
      {"compound": "CCCCCCCCC(O)c1ccc(/C=C\\C(O)CCCC(=O)O)s1", "note": "(stereo unspecified)", "TGI": "> 100"},
      {"compound": "N#CCc1cccc(CC#N)c1Br", "TGI": "> 100"},
      {"compound": "COC(=O)c1c(O)ccc2c1c1c(n2Cc2cc(OC)cc(OC)c2)C(=O)c2ccccc2C1=O", "TGI": 25.9},
      {"compound": "COc1cc([C@@H]2c3cc4c(cc3[C@@H](NCc3cccc(C#N)c3)C3COC(=O)[C@@H]32)OCO4)cc(OC)c1O", "note": "(stereo partly specified)", "TGI": 1.94}
    ]},
    {"tested_on": "DU-145 prostate", "test": "DTP human tumour cell line panel, 48 h", "units": {"TGI": "µM"}, "values": [
      {"compound": "CCOP(=O)(O)C(Nc1ccc(N=Nc2ccccc2)cc1)c1cccc(C(Nc2ccc(N=Nc3ccccc3)cc2)P(=O)(O)OCC)c1", "note": "(stereo unspecified)", "TGI": "> 100"},
      {"compound": "COC(=O)c1c(O)ccc2c1c1c(n2Cc2cc(OC)cc(OC)c2)C(=O)c2ccccc2C1=O", "TGI": 71.9}
    ]},
    {"tested_on": "MDA-N", "test": "DTP human tumour cell line panel, 48 h", "units": {"TGI": "µM"}, "values": [
      {"compound": "CCOP(=O)(O)C(Nc1ccc(N=Nc2ccccc2)cc1)c1cccc(C(Nc2ccc(N=Nc3ccccc3)cc2)P(=O)(O)OCC)c1", "note": "(stereo unspecified)", "TGI": "> 100"},
      {"compound": "COC(=O)c1c(O)ccc2c1c1c(n2Cc2cc(OC)cc(OC)c2)C(=O)c2ccccc2C1=O", "TGI": 34.3}
    ]},
    {"tested_on": "HCC-2998 colon", "test": "DTP human tumour cell line panel, 48 h", "units": {"TGI": "µM"}, "values": [
      {"compound": "CCCCCCCCCCCCCCCc1nc(=S)[nH][nH]1", "TGI": "> 100"},
      {"compound": "CCOP(=O)(O)C(Nc1ccc(N=Nc2ccccc2)cc1)c1cccc(C(Nc2ccc(N=Nc3ccccc3)cc2)P(=O)(O)OCC)c1", "note": "(stereo unspecified)", "TGI": 71.3},
      {"compound": "CCCCCCCCC(O)c1ccc(/C=C\\C(O)CCCC(=O)O)s1", "note": "(stereo unspecified)", "TGI": "> 100"},
      {"compound": "COC(=O)c1c(O)ccc2c1c1c(n2Cc2cc(OC)cc(OC)c2)C(=O)c2ccccc2C1=O", "TGI": 5.73},
      {"compound": "COc1cc([C@@H]2c3cc4c(cc3[C@@H](NCc3cccc(C#N)c3)C3COC(=O)[C@@H]32)OCO4)cc(OC)c1O", "note": "(stereo partly specified)", "TGI": 4.51}
    ]},
    {"tested_on": "NCI-H460 lung", "test": "DTP human tumour cell line panel, 48 h", "units": {"TGI": "µM"}, "values": [
      {"compound": "CCCCCCCCCCCCCCCc1nc(=S)[nH][nH]1", "TGI": "> 100"},
      {"compound": "O=C1OC(=O)C([Se]c2ccccc2)=C1[Se]c1ccccc1", "TGI": "> 100"},
      {"compound": "CCOP(=O)(O)C(Nc1ccc(N=Nc2ccccc2)cc1)c1cccc(C(Nc2ccc(N=Nc3ccccc3)cc2)P(=O)(O)OCC)c1", "note": "(stereo unspecified)", "TGI": "> 100"}
    ]}
  ]
}
